Measurements taken from ChEMBL document CHEMBL1141350, “Pentaketides relating to aspinonene and dihydroaspyrone from a marine-derived fungus, Aspergillus ostianus” (2007).
Active and inactive are the calls of the source. The calls are words filed in the database; no cut-off is given here.

Legend:
Staphylococcus aureus = test: Antibacterial activity against methicillin-resistant Staphylococcus aureus at 100 ug/disc; type: functional, organism-based
L1210 = test: Cytotoxicity against mouse L1210 cells at 25 ppm; type: functional

Row | Structure (SMILES) | Activity (Staphylococcus aureus) | inhibition at 25 ppm (L1210) [%] | Activity (L1210)
1 | CC(=O)/C=C/C(=C/[C@H](C)O)CO | inactive | – | –
2 | C[C@H](O)/C=C/[C@@](O)(CO)[C@@H]1O[C@H]1C [ASPINONENE] | inactive | 27 | –
3 | C[C@H](O)CC1=C[C@H](O)[C@@H](C)OC1=O | inactive | – | –
4 | C[C@H](O)/C=C(/C=C/[C@H](C)O)CO | inactive | – | –
5 | CO[C@](C(=O)O[C@@H](C)CC1=C[C@H](O)[C@@H](C)OC1=O)(c1ccccc1)C(F)(F)F | – | 25 | –
6 | C[C@H](O)/C=C(/C=C/[C@@H](C)O)CO | inactive | – | inactive
